Results from patent US20050118290A1, “Compositions and method for treatment of steroid/nuclear receptor-mediated diseases” (University of Singapore, priority 2003, published 2005).
Values after ≈ are worked out from the molar mass of the structure shown. Each block holds one compound with its values, some of them ahead of it.

Target: T1, PPARγ (Homo sapiens, UniProt P37231)
T1 construct: expressed in transfected cells; host or cells: HeLa
T1 sequence (P37231 238-503 limits assumed): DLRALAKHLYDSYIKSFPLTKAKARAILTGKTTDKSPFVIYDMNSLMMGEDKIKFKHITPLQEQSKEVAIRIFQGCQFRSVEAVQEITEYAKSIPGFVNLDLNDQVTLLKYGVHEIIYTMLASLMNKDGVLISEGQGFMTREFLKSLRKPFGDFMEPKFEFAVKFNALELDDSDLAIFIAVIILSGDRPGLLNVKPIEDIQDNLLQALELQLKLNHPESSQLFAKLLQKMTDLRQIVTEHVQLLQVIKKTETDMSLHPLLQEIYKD
Assay: Chimeric Gal4DBD-PPARγLBD receptor / UASg-luciferase reporter gene assay in HeLa cells
Type: cell-based
From the text: In an example of such a reporter gene assay, a plasmid containing chimeric Ga14DBD-PPARLBD receptor cDNA was constructed by excising the ligand binding domain (LBD) of full length PPARγ and PPARα and ligating the resulting fragments in frame to the Ga14-DNA binding domain (DBD) of Saccharomyces cerevisiae in a pM vector (Clontech). Specifically, to construct Ga14DBD-PPARγLBD plasmid, pSG5 expression vector (Stratagene) containing full length PPARγ was excised with Rsa I and blunt ligated to Hind III site of pMGa14DBD expression plasmid (Clontech). To construct Ga14DBD-PPARαLBD plasmid, pSG5 expression vector (Stratagene) containing full length PPARα was excised with BstU I and BamH I and blunt-end ligated in frame to BamH I site of pMGa14DBD expression plasmid (Clontech). […] Ga14 DBD binds very strongly to the exogenous UASg promoter, thereby giving rise to a sensitive and specific assay. To measure PPARγ and PPARα agonist activity, HeLa cells were grown in 24-well microtiter plates and then transiently co-transfected with the two plasmids (chimeric PPAR receptor and UASg reporter gene) using Lipofectamine (Invitrogen). […] Concurrently, cells exposed to known PPAR ligands served as positive controls. Replicate wells, exposed to the vehicle solvent (i.e., ethanol or methanol) in which herbal extracts were dissolved, were used as negative controls. After the 40 hr incubation period, cells were rinsed with phosphate buffered saline (PBS), lysis buffer was added, and cell lysates were collected for measurement of luciferase activity using a luminometer. […] All data points are in triplicate. The data points represent the mean of triplicate wells. Luciferase activity in such an assay accurately reflects the activity of any ligands on PPARγ or PPARα.

[1] = GW9662 0.1 ×10^−6M (first line)
[2] = GW9662 0.1 ×10^−6M (second line, r12)

Luciferase activity (% Pioglitazone 30 × 100^−6M ± SE), Piogliltazone (30 × 10^−6M) [1]: 97 ± 23.8%
Luciferase activity (% Pioglitazone 30 × 100^−6M ± SE), Vehicle (DMSO) [1]: 13.8 ± 0.207%
Luciferase activity (% Pioglitazone 30 × 100^−6M ± SE), Piogliltazone (30 × 10^−6M) [2]: 114 ± 5%
Luciferase activity (% Pioglitazone 30 × 100^−6M ± SE), Vehicle (DMSO) [2]: 13.8 ± 2.28%
Luciferase activity (% Pioglitazone 30 × 100^−6M ± SE), Piogliltazone (30 × 10^−6M) (GW9662 1 ×10^−6M): 77.2 ± 11.4%
Luciferase activity (% Pioglitazone 30 × 100^−6M ± SE), Vehicle (DMSO) (GW9662 1 ×10^−6M): 23.5 ± 2.74%
Luciferase activity (% Pioglitazone 30 × 100^−6M ± SE), Piogliltazone (30 × 10^−6M) (GW9662 10 ×10^−6M): 40.6 ± 12.3%
Luciferase activity (% Pioglitazone 30 × 100^−6M ± SE), Vehicle (DMSO) (GW9662 10 ×10^−6M): 39.3 ± 4.38%
PPARγ activity on its own (Table 12): weak PPARγ agonistic activity
doses that inhibited the PPARγ effects of pioglitazone (with pioglitazone 30 × 10^−6M, dose-dependent): above 1 ×10^−6M
Compound: O=C(Nc1ccccc1)c1cc([N+](=O)[O-])ccc1Cl [GW9662, reference compound]

Luciferase activity ± SEM (% ciglitazone 10 × 10^−6 M), substance alone (0.1 ×10^−6 g/mL): 15.4 ± 0.81%
Luciferase activity ± SEM (% ciglitazone 10 × 10^−6 M), substance alone (0.3 ×10^−6 g/mL): 21.7 ± 1.52%
Luciferase activity ± SEM (% ciglitazone 10 × 10^−6 M), substance alone (1.0 ×10^−6 g/mL): 55.3 ± 7.99%
Luciferase activity ± SEM (% ciglitazone 10 × 10^−6 M), substance alone (3.0 ×10^−6 g/mL): 100 ± 6.13%
Luciferase activity ± SEM (% ciglitazone 10 × 10^−6 M), HQ extract + ciglitazone 10 × 10^−6 M (HQ extract 0.0 ×10^−6 g/mL (ciglitazone 10 × 10^−6 M only)): 100 ± 2.91%
Compound: CC1(COc2ccc(CC3SC(=O)NC3=O)cc2)CCCCC1 (stereo not shown) [ciglitazone, reference compound]

Compound: CCCCC/C=C/C=C1/C(=O)C=C[C@@H]1C/C=C\CCCC(=O)O [Compound 15DPGJ2, 15-deoxy-δ12,14, Prostaglandin J2, reference compound]
EC50 (PPARγ activity) (FIG. 1A, HeLa cells): 0.5 µg/mL (≈ 1.58 µM)
